Patent US20050245594A1, “Dermal delivery of anti-pain agents and methods useful thereof” (priority 2001, published 2005)
Read-outs that look alike come from different tables or passages of the source.

What was measured:
[1] = tested on: Yorkshire Swine skin (injection site); conditions: pig, in vivo
[2] = Crossover PK study: plasma sumatriptan by LC/MS/MS after ID/junctional vs SC administration (Tmax, Cmax, AUC, relative F); format: in vivo, Yucatan miniswine; conditions: for rel. F 10 min / rel. F Total: compared to SC; for Cmax / AUC: minipig, plasma; for AUC: read-out: AUC 10 mm. (converted)
[3] = Yucatan miniswine, 1 × 1.5 mm × 30 g, 0 mg/ml
[4] = Yucatan miniswine, 1 × 2 mm × 30 g, 30 mg/ml
[5] = Yucatan miniswine, 1 × 3 mm × 30 g, 30 mg/ml
[6] = Yucatan miniswine, 3 × 2 mm × 34 g, 30 mg/ml
[7] = Yucatan miniswine, sc, 12 mg/ml
[8] = Yucatan, 3 × 3 mm × 34 g, 12 mg/ml

- Erythema Mean ([1]; 4 h): 0.1
- Erythema Median ([1]; 4 h): 0.2
- Edema Median ([1]; 6 h): 0
- Edema Median ([1]; 8 h): 0
- Edema Mean ([1]; 24 h): 0.0
- Edema Median ([1]; 24 h): 0
- Erythema Mean ([1]; 24 h): 0.0
- Erythema Median ([1]; 24 h): 0.0
- AUC total ([2]; 1 × 1.5 mm × 30 g, 0 mg/ml): 27696.167 ng·min/mL
- rel. F 10 min ([2]; 1 × 1.5 mm × 30 g, 0 mg/ml): 186.777%
- rel. F Total ([2]; 1 × 1.5 mm × 30 g, 0 mg/ml): 117.806%
- AUC total ([2]; 1 × 2 mm × 30 g, 30 mg/ml): 23548.167 ng·min/mL
- rel. F 10 min ([2]; 1 × 2 mm × 30 g, 30 mg/ml): 165.993%
- rel. F Total ([2]; 1 × 2 mm × 30 g, 30 mg/ml): 100.162%
- AUC total ([2]; 1 × 3 mm × 30 g, 30 mg/ml): 27335.167 ng·min/mL
- rel. F 10 min ([2]; 1 × 3 mm × 30 g, 30 mg/ml): 190.490%
- rel. F Total ([2]; 1 × 3 mm × 30 g, 30 mg/ml): 116.270%
- AUC total ([2]; 3 × 2 mm × 34 g, 30 mg/ml): 30006.000 ng·min/mL
- rel. F 10 min ([2]; 3 × 2 mm × 34 g, 30 mg/ml): 153.272%
- rel. F Total ([2]; 3 × 2 mm × 34 g, 30 mg/ml): 127.631%
- AUC total ([2]; 3 × 3 mm × 34 g, 12 mg/ml): 25642.833 ng·min/mL
- rel. F 10 min ([2]; 3 × 3 mm × 34 g, 12 mg/ml): 116.434%
- rel. F Total ([2]; 3 × 3 mm × 34 g, 12 mg/ml): 109.072%
- AUC total ([2]; 3 × 3 mm × 34 g, 30 mg/ml): 25947.667 ng·min/mL
- rel. F 10 min ([2]; 3 × 3 mm × 34 g, 30 mg/ml): 117.806%
- rel. F Total ([2]; 3 × 3 mm × 34 g, 30 mg/ml): 110.369%
- AUC total ([2]; IV, 12 mg/ml): 16626.000 ng·min/mL
- rel. F 10 min ([2]; IV, 12 mg/ml): 131.820%
- rel. F Total ([2]; IV, 12 mg/ml): 70.719%
- Maximum concentration levels at early time points ([2]; Intradermal and/or junctional administration vs SC): elevated
- AUC total ([2]; SC, 12 mg/ml): 23510.000 ng·min/mL
- rel. F 10 min ([2]; SC, 12 mg/ml): 100.000%
- rel. F Total ([2]; SC, 12 mg/ml): 100.000%
- Cmax [2, 3]: 824 ng/mL
- AUC [2, 3]: 84.7 ng·h/mL
- Cmax [2, 4]: 849 ng/mL
- AUC [2, 4]: 75.2 ng·h/mL
- Cmax [2, 5]: 837 ng/mL
- AUC [2, 5]: 86.4 ng·h/mL
- Cmax [2, 6]: 726 ng/mL
- AUC [2, 6]: 69.5 ng·h/mL
- Cmax ([2]; Yucatan miniswine, 3 × 3 mm × 34 g, 30 mg/ml): 649 ng/mL
- Cmax [2, 7]: 527 ng/mL
- AUC [2, 7]: 45.3 ng·h/mL
- Cmax [2, 8]: 706 ng/mL
- AUC [2, 8]: 52.8 ng·h/mL
- AUC ([2]; Yucatan, 3 × 3 mm × 34 g, 30 mg/ml): 53.4 ng·h/mL
- Cmax ([2]; Yucatan, iv, 12 mg/ml): 661 ng/mL
- AUC ([2]; Yucatan, iv, 12 mg/ml): 59.8 ng·h/mL
Compound: CNS(=O)(=O)Cc1ccc2[nH]cc(CCN(C)C)c2c1 [sumatriptan, 3-[2-(dimethylamino)ethyl]-N-methyl-indole-5-methanesulfonamide]
